Data published in patent publication US10947216B2, “Amide compounds and method for making and using” (Rigel Pharmaceuticals, Inc., priority 2016, dated 2021).
Where a name gives a salt, the structure may show the parent alone. Read-outs that look alike come from different tables or passages of the source.

Columns and labels:
IL-23p19 = assay: LPS Induced IL23p19 in THP-1 Cells (with IFNγ Primed) Assay; format: cell-based, human; conditions: Homo sapiens, IFNγ (50 ng/mL) primed, 1 hour compound pre-incubation, LPS 1 ug/mL 18 hours, 10 pt, read-out: IL23-p19 ELISA, THP1-IFNy, LPS, 10 pt EC50
Method: LPS Induced IL23p19 in THP-1 Cells (with IFNγ Primed) Assay
Method THP-1 Cells Stimulation:
On day 1, 50K/well THP-1 cells were seeded and primed with IFNγ (50 ng/mL) in 384-well plates for about 18 hours in RPMI media with 10% FBS. […] 50 μL/well 2× compound was added to 50 μL/well THP-1 cells (with IFNγ primed) in duplicate in 384 well tissue culture plates. […] Day 3, after stimulation for 18 hours at 37° C., 5% CO2, the assay plate was centrifuged and 70 μL/well supernatant was harvested. IL-23p19 protein in 70 μL/well of supernatant was measured by sandwich ELISA, and 25 μl/well Cell Titer Glo reagent was added to the remaining cells to measure compound toxicity.
Human IL-23p19 Sandwich ELISA:
Maxisorp immuno ELISA plates were pre-coated with 25 μL/well of anti-IL-23p19 capture antibody (2.5 ug/mL) in PBS overnight at room temperature. After washing with 1×PBST, the plates were blocked using 100 μL/well of 1% BSA in PBS for 2 hours at room temperature. The plates were washed three times with 1×PBST and 70 μL/well supernatant were added. The plates were incubated at room temperature for 2 hours with shaking and washed three times with 1×PBST. 25 μL/well of biotin labeled anti-IL-12(p40/p70) detection antibody (100 ng/mL) in PBS with 1% BSA was added and the plates were incubated at room temperature for 2 hours with shaking. After washing three times with 1×PBST, 25 μL/well of streptavidin-HRP (1:200) in PBS with 1% BSA was added and the plates were incubated at room temperature for 20 minutes with shaking. The plates were washed three times with 1×PBST and 25 μL/well of Super Signal ELISA Pico Chemiluminescent Substrate were added. The plates were read with a luminometer, and the chemiluminescence values were entered into Athena (Rigel) for curve fitting, EC50 calculation, and database storage.

IL-23 (p19/p40) = assay: IL23-p19 ELISA, dendritic cells (DC differentiated from human PBMC, IFNγ primed), LPS stimulated; format: cell-based; conditions: Dendritic cell, human PBMC-derived dendritic cells, 1 h compound pre-incubation, LPS 1 μg/ml 18 hours, 10 pt
Method: Compound Screening Using DC Cells
I. Differentiation of PBMC's to DC Cells:
After 2 hours, the media including floating cells was aspirated out carefully and 12 ml of fresh RPMI media (10% FBS) containing GMCSF (100 ng/ml) and IL4 (20 ng/ml) was added, and the flask was kept in a 37° C. incubator for 7 days.
After 3 days, fresh GMCSF (100 ng/ml) and IL4 (20 ng/ml) were added to the flask and the incubation continued. After 7 days, the fully differentiated cells were harvested by spinning down (1200 rpm/5 min) and aspirating the media. The cells were suspended in fresh RPMI media (10% FBS) containing 50 ng/ml IFNγ (1000 U/ml) and then plated (50K/well in 100 μl) onto a white clear bottom 96 well plate and left in a 37° C. incubator for 24 hours.
II. Addition of Compounds:
After 24 hours incubation, 100 μl of RPMI media was added containing 2× concentrated test compound per well to the above cell-culture media (final concentration becomes 1×) and the plates were pre-incubated for 1 hour at 37° C. before stimulating with LPS.
The mixture was shaken and incubated the plates at 37° C. for an additional 18 hours.
155 μl of the supernatant was harvested from each well carefully (without the tip touching the bottom of the well) and to the remaining 50 μl/well of the cell culture plate was added 50 μl of Cell Titer Glo reagent. The mixture was incubated for 1-2 minutes on a shaker and the plate was read for luminescence intensity to determine the compound cytotoxicity. The cell culture supernatant collected above was used to carry out IL23 ELISA (65 μl—Supernatant) and IL10 ELISA (90 μl—Supernatant) as described below.
Human IL-23 (p19/p40) ELISA Protocol (e-Biosciences)
To 10.5 ml PBS add 50 μl of anti-IL23 (p19) was added capture antibody (2.5 μg/ml). The mixture was mixed well and 100 μl of the coating solution was added to each well of the 96 well white plates from Pierce. The wells were covered and incubated overnight at 4° C.
The anti-IL23 (p19)-antibody-coated plates were washed 2× using TBST (use plate washer) and blocked using 200 μl of 0.5% Casein for 1.5-2 hours at room temperature with shaking.
Addition of Supernatant and Detection:
The plates were washed 2× using TBST and the supernatant was transferred (65 μl/well) to the above pre-blocked/IL23(p19)-antibody-coated 96 well plate, and incubated at room temperature for 1.5 hours with shaking.
The plates were washed 4× using TBST (plate washer) and 100 μl/well detection antibody solution prepared from 2 μl of biotin labeled anti-IL-12 (p40/p70) antibody in 11 ml 1% BSA/PBS solution (1-5000 dilution) was added. The plates were incubated for 1 hour with shaking at Room temperature.
Again, the plates were washed 4× with TBST and 100 μl of HRP labeled Streptavidin (R&D Systems) solution (10 μl/10 ml 1% BSA solution) was added, and the plates were incubated at room temperature for another 45 minutes with shaking.
After 45 minutes, the plates were washed with TBST 4× and 100 μl/well Super Signal ELISA Pico Chemiluminescent Substrate from Pierce (3.5 ml A+3.5 ml B+3.5 ml MQ water) was added. The plates were shaken for 1-2 minutes then read on a plate reader.

Compound | EC50 (IL-23p19; THP-1, THP-1 cells) [nM] | EC50 (IL-23 (p19/p40)) [nM] | EC50 (IL-23p19; THP-1 cells) [nM] | EC50 (IL-23 (p19/p40); Homo sapiens) [nM]
CCO[C@H]1CC[C@H](n2cc(NC(=O)c3cccc(-c4cn[nH]c4)n3)c(-c3ncc(F)cc3F)n2)CC1 [Compound I-184, N-(3-(3,5-difluoropyridin-2-yl)-1-(trans-4-ethoxycyclohexyl)-1H-pyrazol-4-yl)-6-(1H-pyrazol-4-yl)picolinamide] | 328 | 8250 |  | 
Cn1cc(NC(=O)c2cncc(-c3cc[nH]n3)n2)c(-c2ccccn2)n1 [Compound I-123, N-(1-methyl-3-(pyridin-2-yl)-1H-pyrazol-4-yl)-6-(1H-pyrazol-3-yl)pyrazine-2-carboxamide] | 921 | 738 |  | 
Cc1cncc(-c2cccc(C(=O)Nc3cn(C)nc3-c3ccc(OCC(C)(C)O)cn3)n2)c1 [Compound I-178, N-(3-(5-(2-hydroxy-2-methylpropoxy)pyridin-2-yl)-1-methyl-1H-pyrazol-4-yl)-5′-methyl-[2,3′-bipyridine]-6-carboxamide] | 2070 | 19300 |  | 
COCCOCCn1cc(NC(=O)c2cccc(-c3ccnc(OC)c3)n2)c(-c2ccccn2)n1 [Compound I-141, 2′-methoxy-N-(1-(2-(2-methoxyethoxy)ethyl)-3-(pyridin-2-yl)-1H-pyrazol-4-yl)-[2,4′-bipyridine]-6-carboxamide formate] | 8430 | 2840 |  | 
COCCOCCn1cc(NC(=O)c2cccc(-c3ccco3)n2)c(-c2ccccn2)n1 [Compound I-152, 6-(furan-2-yl)-N-(1-(2-(2-methoxyethoxy)ethyl)-3-(pyridin-2-yl)-1H-pyrazol-4-yl)picolinamide 2,2,2-trifluoroacetate] | 12400 | 14200 |  | 
Cn1cc(NC(=O)c2nccc(-c3cn[nH]c3)n2)c(-c2ccccn2)n1 [Compound I-124, N-(1-methyl-3-(pyridin-2-yl)-1H-pyrazol-4-yl)-4-(1H-pyrazol-4-yl)pyrimidine-2-carboxamide] | 6640 | 1540 |  | 
CS(=O)(=O)Nc1cncc(-c2cccc(C(=O)Nc3cn(C4COC4)nc3-c3ccccn3)n2)c1 [Compound I-119, sodium (methylsulfonyl)(6-((1-(oxetan-3-yl)-3-(pyridin-2-yl)-1H-pyrazol-4-yl)carbamoyl)-[2,3′-bipyridine]-5′-yl)amide] |  |  | 1020 | 1000
Cn1cc(NC(=O)c2cccc(-c3cc[nH]n3)n2)c(-c2ccc(N3CCOCC3)cn2)n1 [Compound I-172, N-(1-methyl-3-(5-morpholinopyridin-2-yl)-1H-pyrazol-4-yl)-6-(1H-pyrazol-3-yl)picolinamide] |  | 46.8 |  | 
Cn1cc(NC(=O)c2cccc(-c3ccccc3)n2)c(-c2ccccn2)n1 [Compound I-48, N-(1-methyl-3-(pyridin-2-yl)-1H-pyrazol-4-yl)-6-phenylpicolinamide] |  | 9160 |  | 
Cn1cc(NC(=O)c2cccc(-c3cn[nH]c3)n2)c(-c2ccc(N3CCOCC3)cn2)n1 [Compound I-171, N-(1-methyl-3-(5-morpholinopyridin-2-yl)-1H-pyrazol-4-yl)-6-(1H-pyrazol-4-yl)picolinamide] |  | 2380 |  | 
COCCOCCn1cc(NC(=O)c2cccc(Nc3cc(C)ncc3C)n2)c(-c2ccccn2)n1 [Compound I-157, 6-((2,5-dimethylpyridin-4-yl)amino)-N-(1-(2-(2-methoxyethoxy)ethyl)-3-(pyridin-2-yl)-1H-pyrazol-4-yl)picolinamide formate] |  | 10900 |  | 

Now from value to compound, other results behind:

EC50 (IL-23p19; THP-1, THP-1 cells) [nM] | EC50 (IL-23 (p19/p40)) [nM] | Compound | EC50 (IL-23p19; THP-1 cells) [nM] | EC50 (IL-23 (p19/p40); Homo sapiens) [nM]
1260 | 2720 | Cn1cc(NC(=O)c2cccc(-c3cccnc3)n2)c(-c2ccccn2)n1 [Compound I-2, N-(1-methyl-3-(pyridin-2-yl)-1H-pyrazol-4-yl)-[2,3′-bipyridine]-6-carboxamide] |  | 
1200 | 1420 | COCCOCCn1cc(NC(=O)c2cccc(-c3cncc(C)c3)n2)c(-c2ccccn2)n1 [Compound I-149, N-(1-(2-(2-methoxyethoxy)ethyl)-3-(pyridin-2-yl)-1H-pyrazol-4-yl)-5′-methyl-[2,3′-bipyridine]-6-carboxamide formate] |  | 
536 | 162 | Cn1cc(NC(=O)c2cccc(-c3ccn[nH]3)n2)c(-c2ccccn2)n1 [Compound I-6, N-(1-methyl-3-(pyridin-2-yl)-1H-pyrazol-4-yl)-6-(1H-pyrazol-5-yl)picolinamide] |  | 
11000 | 6540 | NC(=O)c1cncc(-c2cccc(C(=O)Nc3cn(C4COC4)nc3-c3ccccn3)n2)c1 [Compound I-133, N6-(1-(oxetan-3-yl)-3-(pyridin-2-yl)-1H-pyrazol-4-yl)-[2,3′-bipyridine]-5′,6-dicarboxamide] |  | 
54900 | 7760 | O=C(Nc1cn(C2COC2)nc1-c1ccccn1)c1cccc(-c2cncc(C(F)(F)F)c2)n1 [Compound I-132, N-(1-(oxetan-3-yl)-3-(pyridin-2-yl)-1H-pyrazol-4-yl)-5′-(trifluoromethyl)-[2,3′-bipyridine]-6-carboxamide] |  | 
 | 1650 | CC(C)Oc1cncc(-c2cccc(C(=O)Nc3cn(C4COC4)nc3-c3ccccn3)n2)c1 [Compound I-130, 5′-isopropoxy-N-(1-(oxetan-3-yl)-3-(pyridin-2-yl)-1H-pyrazol-4-yl)-[2,3′-bipyridine]-6-carboxamide] |  | 
 | 2990 | Cn1cc(NC(=O)c2cccc(-c3cncc(C(N)=O)c3)n2)c(-c2ccccn2)n1 [Compound I-40, N6-(1-methyl-3-(pyridin-2-yl)-1H-pyrazol-4-yl)-[2,3′-bipyridine]-5′,6-dicarboxamide] |  | 
 | 6500 | O=C(Nc1cn(C2CCOCC2)nc1-c1ccccn1)c1cccc(-c2ccncc2)n1 [Compound I-167, N-(3-(pyridin-2-yl)-1-(tetrahydro-2H-pyran-4-yl)-1H-pyrazol-4-yl)-[2,4′-bipyridine]-6-carboxamide] |  | 
 | 8560 | CC(C)Oc1cncc(-c2cccc(C(=O)Nc3cn(C)nc3-c3ccccn3)n2)c1 [Compound I-22, 5′-isopropoxy-N-(1-methyl-3-(pyridin-2-yl)-1H-pyrazol-4-yl)-[2,3′-bipyridine]-6-carboxamide] |  | 
 | 413 | COCCNc1cncc(-c2cccc(C(=O)Nc3cn(C)nc3-c3ccccn3)n2)c1 [Compound I-31, 5′-((2-methoxyethyl)amino)-N-(1-methyl-3-(pyridin-2-yl)-1H-pyrazol-4-yl)-[2,3′-bipyridine]-6-carboxamide] |  | 
